Laboratory results: patent publication US11041000B2, “Peptide inhibitors of interleukin-23 receptor and their use to treat inflammatory diseases” (priority 2019, dated 2021)
Numbered stars: 1 amine (or outer) side, 2 acyl side, 3 side chain; on linkers, the order of the positions; unused ones are H or OH. Bridge positions count the residues as written; N and C are the ends. Square brackets hold non-standard residues; d marks the D form. Peptide text beside a SMILES is read from it. X3 = CCc1ccc2c(C[C@H](N[*:1])C(=O)[*:2])c[nH]c2c1; Trp(7-Me) = Cc1cccc2c(C[C@H](N)C(=O)O)c[nH]c12; 2Nal = N[C@@H](Cc1ccc2ccccc2c1)C(=O)O; d2Nal = N[C@H](Cc1ccc2ccccc2c1)C(=O)O; AEF = NCCOc1ccc(C[C@H](N)C(=O)O)cc1; Cit = NC(=O)NCCC[C@H](N)C(=O)O; Pen = CC(C)(S)[C@H](N)C(=O)O; αMeK = C[C@](N)(CCCCN)C(=O)O; Aib = CC(C)(N)C(=O)O

Legend:
Type in all cases: in vitro ADME
[1] = Stability in cynomolgus monkey fecal homogenate; details: 20% fecal homogenate (supernatant), pH 6.8, 20% cynomolgus monkey fecal homogenate, anaerobic, 37° C., read-out: t½: Monkey Feces anaerobic (converted)
Experimental: (§1) Centrifuged the homogenate at 2800×g for 15 min. The supernatant is taken out and used for incubations. […] The final test compound concentration was 20 μM.

Stability in rat plasma = details: both sexes, SD rat plasma, EDTA, 37° C., read-out: t½: Rat Plasma EDTA (converted)
[2] = Stability in human fecal homogenate; details: 20% fecal homogenate (supernatant), pH 6.8, 20% human fecal homogenate, anaerobic, 37° C., read-out: t½: Human Feces anaerobic (converted)
Experimental: as §1

[3] = Stability in simulated intestinal fluid (SIF); details: simulated intestinal fluid with pancreatin, pH 6.8, 37° C., matrix is 100 fold dilution of standard SIF concentration; for SIF t½: 20 μM; for half-life at 20 μM: read-out: SIF t½ (converted)

half-life at 20 μM [1] [h] | half-life at 20 μM (Stability in rat plasma) [h] | half-life at 20 μM [2] [h] | SIF t½ [3] [h] | half-life at 20 μM [3] [h] | SMILES
> 24 | > 24 | > 24 | 24 | – | CC(=O)NCCCC[C@@H]1NC(=O)[C@H](Cc2c[nH]c3c(C)cccc23)NC(=O)[C@H]([C@@H](C)O)NC(=O)[C@H](CC(C)C)NC(=O)[C@@H](NC(C)=O)C(C)(C)SSC(C)(C)[C@@H](C(=O)N[C@@H](Cc2ccc(OCCN)cc2)C(=O)N[C@@H](Cc2ccc3ccccc3c2)C(=O)N[C@@](C)(CCCCN)C(=O)N[C@@H](CCCCNC(C)=O)C(=O)N[C@@H](CC(N)=O)C(=O)N[C@H](CC(C)C)C(N)=O)NC1=O [compound 332] (Ac-[Pen]LT[Trp(7-Me)]K(Ac)[Pen][AEF][2Nal][αMeK]K(Ac)N[dL]-NH2; disulfide 1-6)
> 24 | > 24 | > 24 | – | 12 | CC(=O)NCCCC[C@@H]1NC(=O)[C@H](Cc2c[nH]c3c(C)cccc23)NC(=O)[C@H]([C@@H](C)O)NC(=O)CNC(=O)[C@@H](NC(C)=O)C(C)(C)SSC(C)(C)[C@@H](C(=O)N[C@@H](Cc2ccc(OCCN)cc2)C(=O)N[C@@H](Cc2ccc3ccccc3c2)C(=O)N[C@@](C)(CCCCN)C(=O)N[C@@H](CCCCNC(C)=O)C(=O)N[C@@H](CC(N)=O)C(=O)N[C@H](CC(C)C)C(N)=O)NC1=O [compound 329] (Ac-[Pen]GT[Trp(7-Me)]K(Ac)[Pen][AEF][2Nal][αMeK]K(Ac)N[dL]-NH2; disulfide 1-6)
> 24 | > 24 | > 24 | 24 | – | CCc1ccc2c(C[C@@H]3NC(=O)[C@H]([C@@H](C)O)NC(=O)[C@H](CC(N)=O)NC(=O)[C@@H](NC(C)=O)C(C)(C)SSC(C)(C)[C@@H](C(=O)N[C@@H](Cc4ccc(OCCN)cc4)C(=O)N[C@@H](Cc4ccc5ccccc5c4)C(=O)N[C@@](C)(CCCCN)C(=O)N[C@@H](CCCCNC(C)=O)C(=O)N[C@@H](CC(N)=O)C(=O)N[C@H](CCCCN)C(N)=O)NC(=O)[C@H](CCCCNC(C)=O)NC3=O)c[nH]c2c1 [compound 349] (Ac-[Pen]NT[X3]K(Ac)[Pen][AEF][2Nal][αMeK]K(Ac)N[dK]-NH2; disulfide 1-6)
> 24 | > 24 | > 24 | – | 10 | CC(=O)NCCCC[C@@H]1NC(=O)[C@H](Cc2c[nH]c3c(C)cccc23)NC(=O)[C@H]([C@@H](C)O)NC(=O)[C@H](CCCNC(=N)N)NC(=O)[C@@H](NC(C)=O)C(C)(C)SSC(C)(C)[C@@H](C(=O)N[C@@H](Cc2ccc(OCCN)cc2)C(=O)N[C@@H](Cc2ccc3ccccc3c2)C(=O)N[C@@](C)(CCCCN)C(=O)N[C@@H](CCCCNC(C)=O)C(=O)N[C@@H](CC(N)=O)C(=O)N[C@H](CC(C)C)C(N)=O)NC1=O [compound 336] (Ac-[Pen]RT[Trp(7-Me)]K(Ac)[Pen][AEF][2Nal][αMeK]K(Ac)N[dL]-NH2; disulfide 1-6)
> 24 | > 24 | 12 | – | 8 | CC(=O)NCCCC[C@@H]1NC(=O)[C@H](Cc2c[nH]c3c(C)cccc23)NC(=O)[C@H]([C@@H](C)O)NC(=O)[C@H](CC(N)=O)NC(=O)[C@@H](NC(C)=O)C(C)(C)SSC(C)(C)[C@@H](C(=O)N[C@@H](Cc2ccc(OCCN)cc2)C(=O)N[C@@H](Cc2ccc3ccccc3c2)C(=O)N[C@@](C)(CCCCN)C(=O)N[C@@H](CCCCNC(=O)[C@H](C)N)C(=O)N[C@@H](CC(N)=O)C(=O)N[C@H](CC(C)C)C(N)=O)NC1=O [compound 355]
> 24 | > 24 | > 24 | – | 7 | CC(=O)NCCCC[C@@H]1NC(=O)[C@H](Cc2c[nH]c3c(C)cccc23)NC(=O)[C@H]([C@@H](C)O)NC(=O)[C@H](CC(N)=O)NC(=O)[C@@H](NC(C)=O)C(C)(C)SSC(C)(C)[C@@H](C(=O)N[C@@H](Cc2ccc(OCCN)cc2)C(=O)N[C@@H](Cc2ccc3ccccc3c2)C(=O)N[C@@](C)(CCCCN)C(=O)N[C@@H](CCCCNC(C)=O)C(=O)N[C@@H](CO)C(=O)N[C@H](CCCCN)C(N)=O)NC1=O [compound 352]
> 24 | > 24 | > 24 | – | 23 | CC(=O)NCCCC[C@@H]1NC(=O)[C@H](Cc2c[nH]c3c(C)cccc23)NC(=O)[C@H]([C@@H](C)O)NC(=O)[C@H](C)NC(=O)[C@@H](NC(C)=O)C(C)(C)SSC(C)(C)[C@@H](C(=O)N[C@@H](Cc2ccc(OCCN)cc2)C(=O)N[C@@H](Cc2ccc3ccccc3c2)C(=O)N[C@@](C)(CCCCN)C(=O)N[C@@H](CCCCNC(C)=O)C(=O)N[C@@H](CC(N)=O)C(=O)N[C@H](CC(C)C)C(N)=O)NC1=O [compound 328] (Ac-[Pen]AT[Trp(7-Me)]K(Ac)[Pen][AEF][2Nal][αMeK]K(Ac)N[dL]-NH2; disulfide 1-6)
> 24 | > 24 | > 24 | – | 13 | CC(=O)NCCCC[C@H](NC(=O)[C@](C)(CCCCN)NC(=O)[C@H](Cc1ccc2ccccc2c1)NC(=O)[C@H](Cc1ccc(OCCN)cc1)NC(=O)[C@H]1NC(=O)[C@H](CCCNC(N)=O)NC(=O)[C@H](Cc2c[nH]c3c(C)cccc23)NC(=O)[C@H]([C@@H](C)O)NC(=O)[C@H](CC(N)=O)NC(=O)[C@@H](NC(C)=O)C(C)(C)SSC1(C)C)C(=O)N[C@@H](CC(N)=O)C(=O)NC(C)(C)C(=O)N[C@H](Cc1ccc2ccccc2c1)C(N)=O [compound 348] (Ac-[Pen]NT[Trp(7-Me)][Cit][Pen][AEF][2Nal][αMeK]K(Ac)N[Aib][d2Nal]-NH2; disulfide 1-6)
> 24 | > 24 | > 24 | 24 | – | CC(=O)NCCCC[C@@H]1NC(=O)[C@H](Cc2c[nH]c3c(C)cccc23)NC(=O)[C@H]([C@@H](C)O)NC(=O)[C@H](CO)NC(=O)[C@@H](NC(C)=O)C(C)(C)SSC(C)(C)[C@@H](C(=O)N[C@@H](Cc2ccc(OCCN)cc2)C(=O)N[C@@H](Cc2ccc3ccccc3c2)C(=O)N[C@@](C)(CCCCN)C(=O)N[C@@H](CCCCNC(C)=O)C(=O)N[C@@H](CC(N)=O)C(=O)N[C@H](CC(C)C)C(N)=O)NC1=O [compound 334] (Ac-[Pen]ST[Trp(7-Me)]K(Ac)[Pen][AEF][2Nal][αMeK]K(Ac)N[dL]-NH2; disulfide 1-6)
> 24 | > 24 | > 24 | 24 | – | CC(=O)NCCCC[C@@H]1NC(=O)[C@H](Cc2c[nH]c3c(C)cccc23)NC(=O)[C@H]([C@@H](C)O)NC(=O)[C@H](CCCCNC(C)=O)NC(=O)[C@@H](NC(C)=O)C(C)(C)SSC(C)(C)[C@@H](C(=O)N[C@@H](Cc2ccc(OCCN)cc2)C(=O)N[C@@H](Cc2ccc3ccccc3c2)C(=O)N[C@@](C)(CCCCN)C(=O)N[C@@H](CCCCNC(C)=O)C(=O)N[C@@H](CC(N)=O)C(=O)N[C@H](CC(C)C)C(N)=O)NC1=O [compound 330] (Ac-[Pen]K(Ac)T[Trp(7-Me)]K(Ac)[Pen][AEF][2Nal][αMeK]K(Ac)N[dL]-NH2; disulfide 1-6)
> 24 | > 24 | > 24 | – | 12 | CC(=O)NCCCC[C@H](NC(=O)[C@](C)(CCCCN)NC(=O)[C@H](Cc1ccc2ccccc2c1)NC(=O)[C@H](Cc1ccc(OCCN)cc1)NC(=O)[C@H]1NC(=O)[C@H](CCCNC(N)=O)NC(=O)[C@H](Cc2c[nH]c3c(C)cccc23)NC(=O)[C@H]([C@@H](C)O)NC(=O)[C@H](CC(N)=O)NC(=O)[C@@H](NC(C)=O)C(C)(C)SSC1(C)C)C(=O)N[C@@H](CC(N)=O)C(=O)NC(C)(C)C(=O)N[C@H](Cc1ccc(O)cc1)C(N)=O [compound 347] (Ac-[Pen]NT[Trp(7-Me)][Cit][Pen][AEF][2Nal][αMeK]K(Ac)N[Aib][dY]-NH2; disulfide 1-6)
> 24 | > 24 | > 24 | – | 9 | CC(=O)NCCCC[C@H](NC(=O)[C@](C)(CCCCN)NC(=O)[C@H](Cc1ccc2ccccc2c1)NC(=O)[C@H](Cc1ccc(OCCN)cc1)NC(=O)[C@H]1NC(=O)[C@H](CCCNC(N)=O)NC(=O)[C@H](Cc2c[nH]c3c(C)cccc23)NC(=O)[C@H]([C@@H](C)O)NC(=O)[C@H](CC(N)=O)NC(=O)[C@@H](NC(C)=O)C(C)(C)SSC1(C)C)C(=O)N[C@@H](CC(N)=O)C(=O)NC(C)(C)C(=O)N[C@H](CCCCN)C(N)=O [compound 344] (Ac-[Pen]NT[Trp(7-Me)][Cit][Pen][AEF][2Nal][αMeK]K(Ac)N[Aib][dK]-NH2; disulfide 1-6)
> 24 | 24 | > 24 | – | 19 | CC(=O)NCCCC[C@H](NC(=O)[C@](C)(CCCCN)NC(=O)[C@H](Cc1ccc2ccccc2c1)NC(=O)[C@H](Cc1ccc(OCCN)cc1)NC(=O)[C@H]1NC(=O)[C@H](CCCNC(N)=O)NC(=O)[C@H](Cc2c[nH]c3c(C)cccc23)NC(=O)[C@H]([C@@H](C)O)NC(=O)[C@H](CC(N)=O)NC(=O)[C@@H](NC(C)=O)C(C)(C)SSC1(C)C)C(=O)N[C@@H](CC(N)=O)C(=O)NC(C)(C)C(=O)N[C@H](Cc1ccccc1)C(N)=O [compound 346] (Ac-[Pen]NT[Trp(7-Me)][Cit][Pen][AEF][2Nal][αMeK]K(Ac)N[Aib][dF]-NH2; disulfide 1-6)

SMILES | half-life at 20 μM [1] [h] | half-life at 20 μM (Stability in rat plasma) [h] | half-life at 20 μM [2] [h] | SIF t½ [3] [h] | half-life at 20 μM [3] [h]
COc1cccc2c(C[C@@H]3NC(=O)[C@H]([C@@H](C)O)NC(=O)[C@H](CC(N)=O)NC(=O)[C@@H](NC(C)=O)C(C)(C)SSC(C)(C)[C@@H](C(=O)N[C@@H](Cc4ccc(OCCN)cc4)C(=O)N[C@@H](Cc4ccc5ccccc5c4)C(=O)N[C@@](C)(CCCCN)C(=O)N[C@@H](CCCCNC(C)=O)C(=O)N[C@@H](CC(N)=O)C(=O)N[C@H](CCCCN)C(N)=O)NC(=O)[C@H](CCC(N)=O)NC3=O)c[nH]c12 [compound 297] | > 24 | > 24 | > 24 | 24 | –
